One experiment relates to Jurkat cell line. The experiment is described as follows: PARP cellular chemopotentiation assay (MTS, with/without TMZ). Format: cell-based. Conditions: Chemopotentiation factor: ratio of EC50 values of Jurkat cells co-treated without and with 100 μM TMZ; 96 hours. The protocol:
Potentiation Factor (PF50) Determination from PARP Cellular Chemopotentiation Assay
Jurkat cell line was maintained according to the supplier (American Type Culture Collection (Rockville, Md.)). Cells were seeded in 96-well tissue culture microplates at 10,000 cells per well and cultured for 24 hours prior to addition of compounds, TMZ (Temozolomide) or DMSO (dimethylsulfoxide) vehicle. After 96 hours of treatment, the conversion of MTS ([3-(4,5-dimethylthiazol-2-yl)-5-(3-carboxymethoxyphenyl)-2-(4-sulfophenyl)-2H-tetrazolium, inner salt], Promega, Madison, Wis.) by metabolically active cells was determined through measuring the OD490 nm with a Spectramax microplate reader (Molecular Devices, San Diego, Calif.). To generate concentration-response curves, cells were treated in duplicate with a range of serial compound dilutions (final DMSO concentration was 0.5%) in the absence or presence of 100 μM TMZ chemoreagent. The percentage of viable cells per well was calculated by correction for background and normalizing against DMSO-treated cells. EC50 values for inhibition of cell viability were calculated using XLfit4 MicroSoft Excel curve-fitting software. Chemopotentiation factor PF50 was calculated as the ratio of EC50 values of cells co-treated without and with TMZ, respectively.

Experiment [1] addresses T1, catalytic domain of Human PARP (Homo sapiens, UniProt P09874).
T1 construct: The catalytic domain of Human PARP was cloned and prepared; made in house
The experiment in a line: Biacore surface plasmon resonance affinity assay. The class given is binding. The following applies: pKD=-log10 KD, KD in mol/L; Biacore T100, 25° C.; read-out: pKD (converted). The gist of the method:
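Binding at 25° C on Biacore T100: 1 min compound association then 5 min dissociation (50 μL/min) over immobilized PARP catalytic domain, buffer HBS-P plus 1% DMSO, 0.5 mM TCEP, 5 mM MgCl2, 2-fold dilution series. KD derived as koff/kon from fitted association and dissociation phases.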
In general terms: SPR reads the build-up and loss of mass on a sensor chip optically.

The target of a further experiment is T2, PARP (Homo sapiens, UniProt P09874).
T2 construct: purchased Trevigen 4684-096-K HT (kit); 4684-096-01 (PARP enzyme)
T2 sequence (P09874 whole entry): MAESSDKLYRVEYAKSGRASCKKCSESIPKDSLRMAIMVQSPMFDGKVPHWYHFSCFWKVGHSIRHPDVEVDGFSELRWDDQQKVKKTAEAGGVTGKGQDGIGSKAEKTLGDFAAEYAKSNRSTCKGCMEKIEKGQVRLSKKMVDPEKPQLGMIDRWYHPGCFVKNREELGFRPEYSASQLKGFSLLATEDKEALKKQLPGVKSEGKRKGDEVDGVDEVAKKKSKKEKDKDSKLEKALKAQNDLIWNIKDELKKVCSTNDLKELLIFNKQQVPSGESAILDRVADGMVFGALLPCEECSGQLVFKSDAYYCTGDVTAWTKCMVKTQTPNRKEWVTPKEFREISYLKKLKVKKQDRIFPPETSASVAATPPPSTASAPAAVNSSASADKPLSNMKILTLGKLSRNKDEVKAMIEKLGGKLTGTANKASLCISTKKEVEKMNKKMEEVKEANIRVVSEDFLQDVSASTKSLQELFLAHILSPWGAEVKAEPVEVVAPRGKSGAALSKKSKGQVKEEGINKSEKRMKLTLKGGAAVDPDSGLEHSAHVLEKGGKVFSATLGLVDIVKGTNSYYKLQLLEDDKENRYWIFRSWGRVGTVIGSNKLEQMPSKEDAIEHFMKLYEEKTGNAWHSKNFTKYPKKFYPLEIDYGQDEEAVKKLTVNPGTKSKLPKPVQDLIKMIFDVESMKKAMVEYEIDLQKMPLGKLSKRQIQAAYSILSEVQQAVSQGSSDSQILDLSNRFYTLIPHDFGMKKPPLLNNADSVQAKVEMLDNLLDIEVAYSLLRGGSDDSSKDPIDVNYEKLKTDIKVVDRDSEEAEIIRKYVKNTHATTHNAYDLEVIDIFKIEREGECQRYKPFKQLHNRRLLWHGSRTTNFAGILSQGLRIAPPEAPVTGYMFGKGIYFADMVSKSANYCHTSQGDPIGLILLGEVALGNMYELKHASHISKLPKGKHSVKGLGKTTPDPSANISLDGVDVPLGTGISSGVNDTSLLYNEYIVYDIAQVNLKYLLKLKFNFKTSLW
The experiment is described as follows: PARP ELISA (ELISA-based colorimetric PARP/Apoptosis Assay kit, Trevigen). Format: biochemical. The following applies: pIC50=-log10 IC50, IC50 in mol/L; inhibition of PARP catalytic activity. The protocol: Inhibition Constant (IC50) from PARP ELISA
After 10 minutes of catalysis the reaction is quenched by solvent aspiration followed by irrigation of the assay wells 4 times with phosphate buffered saline (PBS) containing 0.1% t-Octylphenoxypolyethoxyethanol (Triton® X-100). Mouse Anti-poly ADP ribose (PAR) monoclonal antibody, goat antimouse immunoglobulin G (IgG)-horse radish peroxidase (HRP) conjugate and HRP substrate are added according to the manufacture's specifications to generate a colorimetric signal proportional to PARP catalytic activity.

T1 sequence (P09874 788-1014 limits assumed): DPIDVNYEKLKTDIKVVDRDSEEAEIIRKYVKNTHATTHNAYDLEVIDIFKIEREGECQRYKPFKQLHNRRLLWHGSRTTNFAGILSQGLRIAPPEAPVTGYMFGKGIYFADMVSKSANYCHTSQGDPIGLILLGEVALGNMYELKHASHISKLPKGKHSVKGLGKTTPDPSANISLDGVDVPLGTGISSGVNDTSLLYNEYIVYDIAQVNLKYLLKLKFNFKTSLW

For `CNC(=O)CN1CCN(Cc2ccc3c(c2)NC(=O)C(C)O3)CC1` (stereo not drawn) [Compound 171, N-Methyl-2-(4-((2-methyl-3-oxo-3,4-dihydro-2H-benzo[b][1,4]oxazin-6-yl)methyl)piperazin-1-yl)acetamide], in the experiment on Jurkat cell line, the PF50 entry is on record as “≦0.9”. In addition, the Kd in experiment [1] is 0.126 to 1 µM.

As to `CC1Oc2ccc(CN(C)Cc3ccc(-c4ccccc4)cc3)cc2NC1=O` (stereo not drawn) [Compound 72, 6-(((Biphenyl-4-ylmethyl)(methyl)amino)methyl)-2-methyl-2H-benzo[b][1,4]oxazin-3(4H)-one], the PF50 entry in the experiment on Jurkat cell line was “≦0.9”. Besides, the Kd in experiment [1] is 0.126 to 1 µM.

For `COc1cc(CN2CCN(c3ccc(C(=O)NC4CC4)cc3C)CC2)cc2c1OC(C)C(=O)N2` (stereo not drawn) [Compound 364, N-Cyclopropyl-4-{4-[(8-methoxy-2-methyl-3-oxo-3,4-dihydro-2H-1,4-benzoxazin-6-yl)methyl]piperazin-1-yl}-3-methylbenzamide], in the experiment on Jurkat cell line, the PF50 was 4365.

As for `CC1Oc2c(F)cc(CN3CCN(c4ccc(C#N)cc4)CC3)cc2NC1=O` (stereo not drawn) [Compound 266, 4-(4-((8-Fluoro-2-methyl-3-oxo-3,4-dihydro-2H-benzo[b][1,4]oxazin-6-yl)methyl)piperazin-1-yl)benzonitrile], the PF50 entry with Jurkat cell line is recorded as “≦0.9”. Further, the Kd in experiment [1] is at most 0.01 µM.

As for `COc1cc(CN2CCN(c3ccc(C(=O)O)cc3)CC2)cc2c1OC(C)C(=O)N2` (stereo not drawn) [Compound 160, 4-(4-((8-Methoxy-2-methyl-3-oxo-3,4-dihydro-2H-benzo[b][1,4]oxazin-6-yl)methyl)piperazin-1-yl)benzoic acid], the Kd in experiment [1] was 0.126 to 1 µM. Further, the concentration for half-maximal inhibition (IC50) – broadly, the concentration that gives 50% inhibition – at PARP was at least 0.126 µM.

Consider `CC1Oc2ccc(CN3Cc4ccccc4C3)cc2NC1=O` (stereo not drawn) [Compound 239, 6-(Isoindolin-2-ylmethyl)-2-methyl-2H-benzo[b][1,4]oxazin-3(4H)-one], for which the Kd in experiment [1] is 0.126 to 1 µM. On PARP, this compound showed a half-inhibitory concentration (IC50) of at least 0.126 µM.

As for `CC1Oc2ccc(CN(C)Cc3ccc(Cl)cc3)cc2NC1=O` (stereo not drawn) [Compound 70, 6-(((4-Chlorobenzyl)(methyl)amino)methyl)-2-methyl-2H-benzo[b][1,4]oxazin-3(4H)-one], the PF50 with Jurkat cell line is recorded as 1.0-1.9.

As to `CC1Oc2ccc(CN3CCN(c4ccc(C(=O)O)cn4)CC3)cc2NC1=O` (stereo not drawn) [Compound 233, 6-(4-((2-Methyl-3-oxo-3,4-dihydro-2H-benzo[b][1,4]oxazin-6-yl)methyl)piperazin-1-yl)nicotinic acid], the Kd in experiment [1] was 1.26 to 10 µM. For the same compound, the IC50 on PARP is at least 0.126 µM.

For the compound `CCOC(=O)c1ccc(N2CCN(Cc3cc(F)c4c(c3)NC(=O)C(C)O4)CC2)nc1` (stereo not drawn) [Compound 312, Ethyl 6-(4-((8-fluoro-2-methyl-3-oxo-3,4-dihydro-2H-benzo[b][1,4]oxazin-6-yl)methyl)piperazin-1-yl)nicotinate], the IC50 against PARP was above 0.2 µM.

Consider `CC1Oc2ccc(CN3CCN(c4ccc(S(C)(=O)=O)cc4)CC3)cc2NC1=O` (stereo not drawn) [Compound 227, 2-Methyl-6-((4-(4-(methylsulfonyl)phenyl)piperazin-1-yl)methyl)-2H-benzo[b][1,4]oxazin-3(4H)-one], for which, in the experiment with Jurkat cell line, the PF50 was 1.0-1.9.

With `CC1Oc2ccc(CN3CCN(c4ccc(NC(=O)C5CC5)cc4)CC3)cc2NC1=O` (stereo not drawn) [Compound 247, N-(4-(4-((2-methyl-3-oxo-3,4-dihydro-2H-benzo[b][1,4]oxazin-6-yl)methyl)piperazin-1-yl)phenyl)cyclopropanecarboxamide], the 50% inhibitory concentration (IC50) at PARP is at least 0.126 µM.

With `CC1Oc2c(F)cc(CN3CCN(c4ccc(C(=O)O)cc4)CC3)cc2NC1=O` (stereo not drawn) [Compound 270, 4-(4-((8-Fluoro-2-methyl-3-oxo-3,4-dihydro-2H-benzo[b][1,4]oxazin-6-yl)methyl)piperazin-1-yl)benzoic acid], in experiment [1], the Kd was 1.26 to 10 µM. The compound further had an IC50 against PARP of at least 0.126 µM.

As for `CCOC(=O)c1ccc(N2CCN(Cc3cc4c(c(OC)c3)OC(C)C(=O)N4)CC2)cc1` (stereo not drawn) [Compound 159, Ethyl 4-(4-((8-methoxy-2-methyl-3-oxo-3,4-dihydro-2H-benzo[b][1,4]oxazin-6-yl)methyl)piperazin-1-yl)benzoate], in experiment [1], the Kd is below 0.0316 µM. Besides, at PARP, the IC50 is at least 0.126 µM.

`Cc1c(CN2CC=C(c3ccc(Cl)cc3)CC2)ccc2c1NC(=O)C(C)O2` (stereo not drawn) [Compound 326, 6-((4-(4-Chlorophenyl)-5,6-dihydropyridin-1(2H)-yl)methyl)-2,5-dimethyl-2H-benzo[b][1,4]oxazin-3(4H)-one] showed an IC50 at PARP above 0.2 µM.

For `CC1Oc2c(F)cc(CN3CC=C(c4ccc(Cl)cc4)CC3)cc2NC1=O` (stereo not drawn) [Compound 268, 6-((4-(4-Chlorophenyl)-5,6-dihydropyridin-1(2H)-yl)methyl)-8-fluoro-2-methyl-2H-benzo[b][1,4]oxazin-3(4H)-one], the Kd in experiment [1] was above 10 µM. Besides, the IC50 at PARP is at least 0.126 µM.

Compound `CC1Oc2c(Cl)cc(CN3CCN(c4ccc(C(=O)NC5CC5)cc4)CC3)cc2NC1=O` (stereo not drawn) [Compound 311, 4-(4-((8-Chloro-2-methyl-3-oxo-3,4-dihydro-2H-benzo[b][1,4]oxazin-6-yl)methyl)piperazin-1-yl)-N-cyclopropylbenzamide] gave an IC50 against PARP of 0.0398 µM.

`CC(C)NC(=O)c1ccc(N2CCN(Cc3cc(F)c4c(c3)NC(=O)C(C)O4)CC2)nc1` (stereo not drawn) [Compound 316, 6-(4-((8-Fluoro-2-methyl-3-oxo-3,4-dihydro-2H-benzo[b][1,4]oxazin-6-yl)methyl)piperazin-1-yl)-N-isopropylnicotinamide] showed an IC50 against PARP of 0.1 µM.

Turning to `CCOC(=O)c1ccc(N2CCN(Cc3cc(F)c4c(c3)NC(=O)C(C)O4)CC2)cc1` (stereo not drawn) [Compound 269, Ethyl 4-(4-((8-fluoro-2-methyl-3-oxo-3,4-dihydro-2H-benzo[b][1,4]oxazin-6-yl)methyl)piperazin-1-yl)benzoate], the Kd in experiment [1] was 0.126 to 1 µM. Moreover, at PARP, the IC50 is at least 0.126 µM.

Compound `CC(C)(C)OC(=O)N1CCN(Cc2ccc3c(c2)NC(=O)CO3)CC1` [Compound 357, tert-Butyl 4-((3-oxo-3,4-dihydro-2H-benzo[b][1,4]oxazin-6-yl)methyl)piperazine-1-carboxylate] gave an IC50 at PARP above 0.2 µM.

In the case of `Cc1cc(CN2CC=C(c3ccc(Cl)cc3)CC2)cc2c1OC(C)C(=O)N2` (stereo not drawn) [Compound 263, 6-((4-(4-Chlorophenyl)-5,6-dihydropyridin-1(2H)-yl)methyl)-2,8-dimethyl-2H-benzo[b][1,4]oxazin-3(4H)-one], the Kd in experiment [1] is above 10 µM. Also, on PARP, the IC50 is at least 0.126 µM.

Turning to `CCNC(=O)c1ccc(N2CCN(Cc3cc4c(c(OC(F)F)c3)OC(C)C(=O)N4)CC2)c(Cl)c1` (stereo not drawn) [Compound 405, 3-Chloro-4-(4-((8-(difluoromethoxy)-2-methyl-3-oxo-3,4-dihydro-2H-benzo[b][1,4]oxazin-6-yl)methyl)piperazin-1-yl)-N-ethylbenzamide], in the experiment on Jurkat cell line, the PF50 turned out to be 5.3.

As to `CC1Oc2ccc(CN3Cc4ccc([N+](=O)[O-])cc4C3)cc2NC1=O` (stereo not drawn) [Compound 240, 2-Methyl-6-((5-nitroisoindolin-2-yl)methyl)-2H-benzo[b][1,4]oxazin-3(4H)-one], the Kd in experiment [1] is 0.126 to 1 µM. In addition, the IC50 against PARP is at least 0.126 µM.

On to `CC1Oc2cc(F)c(CN3CCC(c4ccc(Cl)cc4)CC3)cc2NC1=O` (stereo not drawn) [Compound 332, 6-((4-(4-Chlorophenyl)piperidin-1-yl)methyl)-7-fluoro-2-methyl-2H-benzo[b][1,4]oxazin-3(4H)-one], for which, at PARP, the 50% inhibitory concentration (IC50) was above 0.2 µM.

As for `CC1Oc2ccc(OC3CCN(c4ccc(C(=O)NC5CC5)cc4)CC3)cc2NC1=O` (stereo not drawn) [Compound 397, N-Cyclopropyl-4-(4-(2-methyl-3-oxo-3,4-dihydro-2H-benzo[b][1,4]oxazin-6-yloxy)piperidin-1-yl)benzamide], the IC50 at PARP is above 0.2 µM.

On PARP, `Cc1cc2c(cc1CN1CCC(c3ccc(Cl)cc3)CC1)NC(=O)C(C)O2` (stereo not drawn) [Compound 322, 6-((4-(4-Chlorophenyl)piperidin-1-yl)methyl)-2,7-dimethyl-2H-benzo[b][1,4]oxazin-3(4H)-one] showed an IC50 above 0.2 µM.

On PARP, `CCN(C)C(=O)c1ccc(N2CCN(Cc3ccc4c(c3)NC(=O)C(C)O4)CC2)cc1` (stereo not drawn) [Compound 379, N-Ethyl-N-methyl-4-(4-((2-methyl-3-oxo-3,4-dihydro-2H-benzo[b][1,4]oxazin-6-yl)methyl)piperazin-1-yl)benzamide] had an IC50 above 0.2 µM.

Compound `Cc1c(CN2CCN(c3ccc(Cl)cc3)CC2)ccc2c1NC(=O)C(C)O2` (stereo not drawn) [Compound 325, 6-((4-(4-Chlorophenyl)piperazin-1-yl)methyl)-2,5-dimethyl-2H-benzo[b][1,4]oxazin-3(4H)-one] showed an IC50 against PARP above 0.2 µM.

Source of the values: patent US8669249B2, “Poly (ADP-ribose) polymerase (PARP) inhibitors” (Takeda Pharmaceutical Company Limited, priority 2009, dated 2014).
